In patent publication US20150307938A1, “METHOD TO IDENTIFY A NOVEL CLASS OF IMMUNOLOGIC ADJUVANTS” (Lancell, L.L.C., priority 2011, published 2015):
Values joined by “and” are separate entries in the source; they are usually repeats but may differ in a detail not shown here. Equal entries are not always repeated.

Tested on: skin
Assay: Affymetrix microarray of skin, DBP-4 hr and analogs vs. untreated; gene selection by log-2 fold change, Wilcoxon, Kendall tau (Tables 8, 9)
Assay type: in vivo, mouse
Details: mouse, in vivo

SMILES: CCCCOC(=O)c1ccccc1C(=O)OCCCC [DBP, dibutylphthalate]
- DBP LogFold-Change Versus-Untreated: Csrp1: 0.81
- DBP LogFold-Change Versus-Untreated: Cxcl1: 5.43
- DBP LogFold-Change Versus-Untreated: Cxcl2: 4.56
- DBP LogFold-Change Versus-Untreated: Cxcl16: 1.35
- DBP LogFold-Change Versus-Untreated: Cyr61: 1.59
- DBP LogFold-Change Versus-Untreated: Cytip: 1.19
- DBP LogFold-Change Versus-Untreated: Deptor: 0.99
- DBP LogFold-Change Versus-Untreated: Dusp6: 1.81
- DBP LogFold-Change Versus-Untreated: Dusp7: 1.07
- DBP LogFold-Change Versus-Untreated: Efhd2: 0.82
- DBP LogFold-Change Versus-Untreated: Egr1: 1.50
- DBP LogFold-Change Versus-Untreated: Eif1a: 0.97
- DBP LogFold-Change Versus-Untreated: Epgn: 3.82
- DBP LogFold-Change Versus-Untreated: Epha2: 0.82
- DBP LogFold-Change Versus-Untreated: Errfi1: 0.89
- DBP LogFold-Change Versus-Untreated: F2rl1: 0.78
- DBP LogFold-Change Versus-Untreated: Fam43a: 0.81
- DBP LogFold-Change Versus-Untreated: Fgfbp1: 1.01
- DBP LogFold-Change Versus-Untreated: Fkbp5: 1.19
- DBP LogFold-Change Versus-Untreated: Fosl1: 1.95
- DBP LogFold-Change Versus-Untreated: Gjb2: 1.21
- DBP LogFold-Change Versus-Untreated: Gpr35: 0.91
- DBP LogFold-Change Versus-Untreated: Gpr65: 1.35
- DBP LogFold-Change Versus-Untreated: Gyk: 1.00
- DBP LogFold-Change Versus-Untreated: Gzmb: 1.30
- DBP LogFold-Change Versus-Untreated: Havcr2: 1.89
- DBP LogFold-Change Versus-Untreated: Hbegf: 1.76
- DBP LogFold-Change Versus-Untreated: Hdc: 2.14
- DBP LogFold-Change Versus-Untreated: Icam1: 2.66
- DBP LogFold-Change Versus-Untreated: Ier2: 1.02
- DBP LogFold-Change Versus-Untreated: Ier3: 1.85
- DBP LogFold-Change Versus-Untreated: Il1b: 2.73
- DBP LogFold-Change Versus-Untreated: Il1rl1: 0.91
- DBP LogFold-Change Versus-Untreated: Il4ra: 0.81
- DBP LogFold-Change Versus-Untreated: Il6: 3.05
- DBP LogFold-Change Versus-Untreated: Il7r: 1.15
- DBP LogFold-Change Versus-Untreated: Il10ra: 0.90
- DBP LogFold-Change Versus-Untreated: Irs2: 0.94
- DBP LogFold-Change Versus-Untreated: Jun: 1.06
- DBP LogFold-Change Versus-Untreated: Junb: 1.39
- DBP LogFold-Change Versus-Untreated: Kctd11: 0.80
- DBP LogFold-Change Versus-Untreated: Klrb 1b: 1.25
- DBP LogFold-Change Versus-Untreated: Krt6a: 1.53
- DBP LogFold-Change Versus-Untreated: Krt35: 1.06
- DBP LogFold-Change Versus-Untreated: LOC100504977: 3.10
- DBP LogFold-Change Versus-Untreated: Map3k6: 1.03
- DBP LogFold-Change Versus-Untreated: Map3k8: 1.01
- DBP LogFold-Change Versus-Untreated: Mt1: 1.34
- DBP LogFold-Change Versus-Untreated: Mt2: 1.11
- DBP LogFold-Change Versus-Untreated: Nfil3: 1.60
- DBP LogFold-Change Versus-Untreated: Nfkb2: 0.94
- DBP LogFold-Change Versus-Untreated: Nr4a1: 2.09
- DBP LogFold-Change Versus-Untreated: Nr4a2: 1.39
- DBP LogFold-Change Versus-Untreated: Osmr: 0.95
- DBP LogFold-Change Versus-Untreated: Otud7a: 1.25
- DBP LogFold-Change Versus-Untreated: Pde4b: 1.44
- DBP LogFold-Change Versus-Untreated: Plaur: 1.06
- DBP LogFold-Change Versus-Untreated: Plk3: 1.00
- DBP LogFold-Change Versus-Untreated: Pmaip1: 1.47
- DBP LogFold-Change Versus-Untreated: Pprc1: 0.78
- DBP LogFold-Change Versus-Untreated: Pqlc1: 0.87
- DBP LogFold-Change Versus-Untreated: Prss22: 1.61
- DBP LogFold-Change Versus-Untreated: Ptges: 1.22
- DBP LogFold-Change Versus-Untreated: Pvr: 0.90
- DBP LogFold-Change Versus-Untreated: Pyy: 2.62
- DBP LogFold-Change Versus-Untreated: Rab20: 1.52
- DBP LogFold-Change Versus-Untreated: Ramp3: 1.20
- DBP LogFold-Change Versus-Untreated: Rgs1: 2.12
- DBP LogFold-Change Versus-Untreated: Rnf19b: 1.15
- DBP LogFold-Change Versus-Untreated: Serpine1: 2.68
- DBP LogFold-Change Versus-Untreated: Slc7a5: 1.52
- DBP LogFold-Change Versus-Untreated: Slc10a6: 1.33
- DBP LogFold-Change Versus-Untreated: Slc25a25: 1.16
- DBP LogFold-Change Versus-Untreated: Slc39a8: 1.52
- DBP LogFold-Change Versus-Untreated: Slc39a14: 0.84
- DBP LogFold-Change Versus-Untreated: Smox: 1.30 and 1.29 and 1.28
- DBP LogFold-Change Versus-Untreated: Socs2: 1.26
- DBP LogFold-Change Versus-Untreated: Socs3: 1.39
- DBP LogFold-Change Versus-Untreated: Sprr1a: 1.43
- DBP LogFold-Change Versus-Untreated: Stc1: 1.07
- DBP LogFold-Change Versus-Untreated: Stk17b: 0.89
- DBP LogFold-Change Versus-Untreated: Tnfaip2: 1.94
- DBP LogFold-Change Versus-Untreated: Tnfaip3: 2.10
- DBP LogFold-Change Versus-Untreated: Tnfaip6: 2.30
- DBP LogFold-Change Versus-Untreated: Traf1: 1.07
- DBP LogFold-Change Versus-Untreated: Uap1: 1.11
- DBP LogFold-Change Versus-Untreated: Zbtb16: 1.04
- DBP LogFold-Change Versus-Untreated: Zfp36: 1.53
- DBP LogFold-Change Versus-Untreated: Zfp593: 1.01
- Dbp NM_016974_at ≧2-Fold change: No
- Deptor NM_001037937_at ≧2-Fold change: No
- Dlgap4 NM_001042487_at ≧2-Fold change: No
- Dlgap4 NM_001042488_at ≧2-Fold change: No
- Dusp6 (NM_026268_at) ≧2-Fold change: Yes
- Dusp7 (NM_153459_at) ≧2-Fold change: Yes
- Ear5 NM_019398_at ≧2-Fold change: No
- Epgn (NM_053087_at) ≧2-Fold change: Yes
- Fam134b NM_001034851_at ≧2-Fold change: No
- Gcdh NM_001044744_at ≧2-Fold change: No
- Gm10228 XM_001474297_at ≧2-Fold change: No
- Gm10228 XM_003086004_at ≧2-Fold change: No
- Gm10229 XM_003086003_at ≧2-Fold change: No
- Gsdmc NM_031378_at ≧2-Fold change: No
- Gzmb (NM_013542_at) ≧2-Fold change: Yes
- H19 NR_001592_at ≧2-Fold change: No
- Havcr2 (NM_134250_at) ≧2-Fold change: Yes
- Ier2 (NM_010499_at) ≧2-Fold change: Yes
- Ier3 (NM_133662_at) ≧2-Fold change: Yes
- Ifi202b (NM_011940_at) ≧2-Fold change: Yes
- Il1f6 (NM_019450_at) ≧2-Fold change: Yes
- Il1rl1 NM_001025602_at ≧2-Fold change: No
- Il6 (NM_031168_at) ≧2-Fold change: Yes
- Il20 (NM_021380_at) ≧2-Fold change: Yes
- Inpp5a NM_001127363_at ≧2-Fold change: No
- Inpp5d NM_001110192_at ≧2-Fold change: No
- Inpp5d NM_001110193_at ≧2-Fold change: No
- Jdp2 (NM_030887_at) ≧2-Fold change: Yes
- Jun (NM_010591_at) ≧2-Fold change: Yes
- Klhdc5 NM_001081237_at ≧2-Fold change: No
- Klk6 (NM_011177_at) ≧2-Fold change: Yes
- Klrb1b (NM_030599_at) ≧2-Fold change: Yes
- Krt25 (NM_133730_at) ≧2-Fold change: Yes
- Krt27 (NM_010666_at) ≧2-Fold change: Yes
- Krt33a NM_027983_at ≧2-Fold change: No
- Krt34 NM_027563_at ≧2-Fold change: No
- Krt35 (NM_016880_at) ≧2-Fold change: Yes
- Krt71 (NM_019956_at) ≧2-Fold change: Yes
- Krtap1-5 NM_027157_at ≧2-Fold change: No
- Krtap3-1 NM_023511_at ≧2-Fold change: No
- Krtap3-3 NM_025524_at ≧2-Fold change: No
- Krtap4-2 NM_026807_at ≧2-Fold change: No
- Krtap4-16 (NM_001013823_at) ≧2-Fold change: No
- Krtap5-2 NM_027844_at ≧2-Fold change: No
- Krtap9-3 NM_029351_at ≧2-Fold change: No
- Krtap13-1 NM_183189_at ≧2-Fold change: No
- Krtap16-1 NM_130870_at ≧2-Fold change: No
- Krtap16-5 NM_130857_at ≧2-Fold change: No
- Krtap16-7 NM_028621_at ≧2-Fold change: No
- Krtap16-8 NM_130856_at ≧2-Fold change: No
- Krtap16-9 NM_130876_at ≧2-Fold change: No
- Krtap16-10 NM_183296_at ≧2-Fold change: No
- Krtap28-13 XM_896507_at ≧2-Fold change: No
- Krtap28-13 XM_919110_at ≧2-Fold change: No
- LOC100044068 (XM_001473873_at) ≧2-Fold change: Yes
- LOC100503254 XM_003085741_at ≧2-Fold change: No
- LOC100504977 (XM_003085794_at) ≧2-Fold change: Yes
- Lmod2 NM_053098_at ≧2-Fold change: No
- Lyz2 NM_017372_at ≧2-Fold change: No
- Maff (NM_010755_at) ≧2-Fold change: Yes
- Map3k6 (NM_016693_at) ≧2-Fold change: Yes
- Mcoln2 (NM_026656_at) ≧2-Fold change: Yes
- Mfhas1 NM_001081279_at ≧2-Fold change: No
- Mfsd4 NM_001114662_at ≧2-Fold change: No
- Mia1 NM_019394_at ≧2-Fold change: No
- Mrpl44 NM_001081210_at ≧2-Fold change: No
- Ms4a6d NM_026835_at ≧2-Fold change: No
- Mt1 (NM_013602_at) ≧2-Fold change: Yes
- Mylpf NM_016754_at ≧2-Fold change: No
- Myoz2 NM_021503_at ≧2-Fold change: No
- NA (AFFX-18SRNAMur/X00686_3_at) ≧2-Fold change: No
- NA (AFFX-18SRNAMur/X00686_5_at) ≧2-Fold change: No
- NA (AFFX-18SRNAMur/X00686_M_at) ≧2-Fold change: No
- NA (AFFX-BioB-3_at) ≧2-Fold change: No
- NA (AFFX-BioB-5_at) ≧2-Fold change: No
- NA (AFFX-BioB-M_at) ≧2-Fold change: No
- NA (AFFX-BioC-3_at) ≧2-Fold change: No
- NA (AFFX-BioC-5_at) ≧2-Fold change: No
- NA (AFFX-BioDn-3_at) ≧2-Fold change: No
- NA (AFFX-BioDn-5_at) ≧2-Fold change: No
- NA (AFFX-ThrX-5_at) ≧2-Fold change: No
- Ncbp1 NM_001033201_at ≧2-Fold change: No
- Nfil3 (NM_017373_at) ≧2-Fold change: Yes
- Nfkbia (NM_010907_at) ≧2-Fold change: Yes
- Nfkbiz (NM_030612_at) ≧2-Fold change: Yes
- Nolc1 NM_001039351_at ≧2-Fold change: No
- Nolc1 NM_001039352_at ≧2-Fold change: No
- Nolc1 NM_001039353_at ≧2-Fold change: No
- Nr4a2 (NM_013613_at) ≧2-Fold change: Yes
